Test system: calcium influx in Jurkat T-cells
Assay: Calcium imaging assay: store-depletion induced calcium influx in Jurkat T-cells
Assay type: cell-based, human
Conditions: thapsigargin then 2 mM Ca2+; clofazimine preincubated 5 min
Procedure: JurkaT-cells were attached to L-lysine-coated glass dishes (MatTek). Cells were loaded with fura-2-AM (Invitrogen_F-1201) for 45 min before they were washed sequentially with growth medium and Ca^2+-free HBSS. Fluorescence excitation wavelengths were set at 350 and 380 nm, respectively, on a Zeiss Axiovert 200M microscope while emission wavelength was set at 510 nm. Changes in intracellular calcium concentrations were determined by fluorescence intensity ratio ([…]/F380).

SMILES: Clc1ccc(COC(Cn2ccnc2)c2ccc(Cl)cc2Cl)cc1 (centres unmarked) [econazole]
- effect on calcium entry: abrogated calcium entry

SMILES: [Gd] [gadolinium]
- effect on calcium entry: abrogated calcium entry

— US8669257B2, “Phenazine derivatives and uses thereof as potassium channel modulators” (The Johns Hopkins University, priority 2007, dated 2014)
